In patent US4478828A, “Nonapeptide having immunostimulative activity, process for the preparation thereof, and its use” (Hoechst Aktiengesellschaft, priority 1982, dated 1984):
Square brackets hold non-standard residues; d marks the D form. Peptide text beside a SMILES is read from it. pGlu = O=C1CC[C@@H](C(=O)O)N1

How the values were obtained:
spleen cells of mice = test: Plaqueforming Cell Assay (PFC test), in vitro immunization with sheep erythrocytes; format: cell-based; conditions: for Plaques/10^6 cells: added daily, 5 days, control 768
Experimental: (§1) The nonapeptide of the invention was tested in the Plaqueforming Cell Assay (PFC test) and in the phythemagglutinin stimulation test (PHA test) for its lymphocyte-stimulative action.
In the PFC test, cell cultures of freshly dissected spleens of mice (2×10^7 spleen cells per ml) were prepared in RPMI 1640 and 30 μl of fetal calf serum (FCS) per ml of cell culture. In vitro immunization is carried out with 5×10^7 sheep erythrocytes/ml. The test cell cultures are incubated daily with the corresponding dose of the test substance. After a test period of 5 days, the cells are centrifuged off, washed with RPMI 1640 medium, and the direct PCF test is carried out as follows: The cells are mixed in an agarose solution with a 10% sheep erythrocyte suspension, and poured onto a plane surface. In the gel layer so formed the stimulated lymphocytes set free antibodies in the subsequent incubation which diffuse in the environment and adhere to the sheep erythrocytes present in these places. After addition of guinea pig complement the red blood cells lyse. Light-colored, circular spots are formed in the reddish-brown gel, which can be discerned with a naked eye, and which are the hemolysis halos of the plaques. In the center of such hemoylsis halos there is an antibody-producing cell. The number of lymphoid cells which form specific immunoglobulins can therefore be equalized with the plaque values found.

lymphocytes = test: phythemagglutinin stimulation test (PHA test), 3H-thymidine incorporation; format: cell-based; conditions: for Stimulation index SI / Incorporation of 3H-thymidine: 20 μg PHA/ml, 72 hours; for Incorporation of 3H-thymidine: control 114 311
Experimental: as §1
The PHA test allows conclusions on the amount of mature, that is, stimulable, lymphocytes by means of the function test on stimulability with the phytolectin PHA. The lectin, like bacterial or viral antigens, incites the lymphocytes to a blast transformation. It causesd proliferation either directly or by induction of lymphokine secretion.
The incorporation of radioactive thymidine within a defined period of time is then the measure for the number of stimulated cells. The mature or immunologically potent T cells only are stimulated. Thus, the influence of a substance on the maturation of lymphocytes can be observed by means of this test. However, stimulation must remain below the optimum; for, at a higher concentration other subpopulations of lymphocytes are stimulated, too, and the effect cannot be observed any longer. The peptide of the invention was added to the culture medium in varying concentrations.

[1] = toxic effects on administration (general statement)

## C[C@@H](O)[C@H](NC(=O)[C@H](CO)NC(=O)[C@H](CO)NC(=O)[C@H](CO)NC(=O)[C@H](CC(=O)O)NC(=O)[C@@H]1CCC(=O)N1)C(=O)NCC(=O)N[C@@H](Cc1c[nH]c2ccccc12)C(=O)N[C@@H](CC(N)=O)C(=O)O [nonapeptide, L-pyroglutamyl-L-aspartyl-L-seryl-L-seryl-L-seryl-L-threonyl-glycyl-L-tryptophyl-L-asparagine] ([pGlu]DSSSTGWN-OH)
Spleen cells of mice; 1 ng/ml nonapeptide
  Plaques/10^6 cells: 908 Plaques/10^6 cells
Spleen cells of mice; 10 ng/ml nonapeptide
  Plaques/10^6 cells: 1112 Plaques/10^6 cells
Spleen cells of mice; 100 ng/ml nonapeptide
  Plaques/10^6 cells: 1024 Plaques/10^6 cells
Spleen cells of mice; 1 μg/ml nonapeptide
  Plaques/10^6 cells: 817 Plaques/10^6 cells
Spleen cells of mice; 5 μg/ml nonapeptide
  Plaques/10^6 cells: 802 Plaques/10^6 cells
Spleen cells of mice; PFC test, in words
  stimulation of the lymphocytes depending on the dose: bell-shaped curve
lymphocytes; 0.0125 μg/ml nonapeptide
  Stimulation index SI: 0.89
  Incorporation of 3H-thymidine: 101 594 cpm
lymphocytes; 0.125 μg/ml nonapeptide
  Stimulation index SI: 1.20
  Incorporation of 3H-thymidine: 137 519 cpm
lymphocytes; 0.5 μg/ml nonapeptide
  Stimulation index SI: 1.26
  Incorporation of 3H-thymidine: 143 831 cpm
lymphocytes; 1.0 μg/ml nonapeptide
  Stimulation index SI: 1.00
  Incorporation of 3H-thymidine: 113 978 cpm
lymphocytes; 5.0 μg/ml nonapeptide
  Stimulation index SI: 0.94
  Incorporation of 3H-thymidine: 107 670 cpm
lymphocytes; PHA test, in words
  stimulation of the lymphocytes depending on the dose: bell-shaped curve
[1]
  toxic effects: toxic effects have not been observed hitherto
